This note sets out measurements from ChEMBL document CHEMBL4837201, “Increased antibacterial properties of indoline-derived phenolic Mannich bases” (Eur J Med Chem, 2021).

pIC50: −log10 of the molar value. In brackets after ≈: the same amount, converted by molar mass.

Data set [1] can be described thus: Antioxidant activity assessed as DPPH radical scavenging activity at 10 ug/ml by DPPH assay relative to control. The format is functional. Particulars: dose 10.0 µg/ml. In general terms: The DPPH test is a chemical assay of radical scavenging.
In data set [2] the test system is Staphylococcus epidermidis. Put plainly: Antibacterial activity against Staphylococcus epidermidis assessed as inhibition of bacterial growth incubated for 16 to 24 hrs by broth microdilution method. The format is functional. Particulars: time 16-24 hrs.
In data set [3] the test system is Enterococcus faecalis. Put plainly: Antibacterial activity against vancomycin-resistant Enterococcus faecalis ATCC 51299 assessed as inhibition of bacterial growth incubated for 16 to 24 hrs by broth microdilution method. The format is functional. Particulars: time 16-24 hrs. A general note: Dilution methods test growth across graded concentrations, often in twofold steps.

The test system of data set [4] is Staphylococcus aureus. Put plainly: Antibacterial activity against Staphylococcus aureus ATCC 6538 assessed as inhibition of bacterial growth incubated for 16 to 24 hrs by broth microdilution method. Particulars: time 16-24 hrs. The format is functional.
The next data set deals with Enterococcus faecium. Put plainly: Antibacterial activity against Enterococcus faecium assessed as inhibition of bacterial growth incubated for 16 to 24 hrs by broth microdilution method. In kind it is functional. Particulars: time 16-24 hrs.
The subject of a further data set is Bacillus subtilis. Put plainly: Antibacterial activity against Bacillus subtilis ATCC 6633 assessed as inhibition of bacterial growth incubated for 16 to 24 hrs by broth microdilution method. In kind it is functional. Particulars: time 16-24 hrs.
Data set [5] in a line: (§1) Cytotoxicity against human HaCaT cells assessed as cell viability at 50 uM after 24 hrs by MTT assay. In kind it is cell-based. Particulars: HaCaT cells, read-out: Activity. Background: Formazan colour is commonly taken as a measure of viable cells.
Data set [6] has as its system Staphylococcus aureus. Put plainly: Antibacterial activity against Staphylococcus aureus assessed as inhibition of bacterial growth incubated for 16 to 24 hrs by broth microdilution method. The format is functional. Particulars: time 16-24 hrs.
In the next data set the test system is Listeria monocytogenes. Put plainly: Antibacterial activity against Listeria monocytogenes assessed as inhibition of bacterial growth incubated for 16 to 24 hrs by broth microdilution method. The format is functional. Particulars: time 16-24 hrs.
Data set [7] has as its system Staphylococcus aureus. Put plainly: Antibacterial activity against methicillin-resistant Staphylococcus aureus CIP106760 assessed as inhibition of bacterial growth incubated for 16 to 24 hrs by broth microdilution method. Particulars: time 16-24 hrs. In kind it is functional.
Data set [8] has as its system Staphylococcus epidermidis. Put plainly: Antibacterial activity against Staphylococcus epidermidis ATCC 12228 assessed as inhibition of bacterial growth incubated for 16 to 24 hrs by broth microdilution method. Particulars: time 16-24 hrs. In kind it is functional.
For data set [9], the system named is Staphylococcus aureus. Put plainly: Antibacterial activity against methicillin-sensitive Staphylococcus aureus ATCC 25923 assessed as inhibition of bacterial growth incubated for 16 to 24 hrs by broth microdilution method. In kind it is functional. Particulars: time 16-24 hrs.
The subject of data set [10] is Enterococcus faecalis. Put plainly: Antibacterial activity against Enterococcus faecalis ATCC 29212 assessed as inhibition of bacterial growth incubated for 16 to 24 hrs by broth microdilution method. In kind it is functional. Particulars: time 16-24 hrs.
Data set [11] deals with Enterococcus faecalis. Put plainly: Antibacterial activity against Enterococcus faecalis assessed as inhibition of bacterial growth incubated for 16 to 24 hrs by broth microdilution method. In kind it is functional. Particulars: time 16-24 hrs.
Data set [12] can be described thus: Toxicity in Saccharomyces cerevisiae ATCC 2601 assessed as reduction in cell viability measured after 24 hrs by microdilution method. Particulars: Saccharomyces cerevisiae, Saccharomyces cerevisiae ATCC 2601 cells.
In the next data set the test system is MRC5. Put plainly: Cytotoxicity against human MRC5 cells assessed as reduction in cell viability measured after 24 hrs by MTT assay. In kind it is cell-based. Particulars: MRC5, 24 h.
The test system of data set [13] is HaCaT. Put plainly: Cytotoxicity against human HaCaT cells assessed as reduction in cell viability at 50 uM after 24 hrs by MTT assay. The format is cell-based.
Data set [14] relates to HaCaT. Described as §1. The format is cell-based. Particulars: hacat, 24 h, 50 µM.
Data set [15] is described as follows: Toxicity in Artemia salina assessed as mortality at 10 ug/ml measured after 24 hrs. Particulars: at 10 µg/mL.
The nature of data set [16]: Cytotoxicity against human HaCaT cells assessed as cell viability at 28 uM after 24 hrs by MTT assay. In kind it is cell-based. Particulars: read-out: Activity.

As to `Cc1ccc(C(c2cc([N+](=O)[O-])ccc2O)N2CCc3cc([N+](=O)[O-])ccc32)cc1` (centres undefined), in data set [1], the Activity was found to be 8%. The minimum inhibitory concentration (MIC) (commonly the smallest concentration in the dilution series that meets the test's criterion for growth inhibition) in [2] was 9.64 µM (≈ 3.91 µg/mL); in the data set on Enterococcus faecalis [3] it was 2.41 µM (≈ 0.977 µg/mL); in the data set on Staphylococcus aureus [4], 19.3 µM (≈ 7.82 µg/mL); in the data set with Enterococcus faecium, 9.64 µM (≈ 3.91 µg/mL); in the data set with Bacillus subtilis, 18.9 µM (≈ 7.66 µg/mL); in the data set with Staphylococcus aureus [6] it was 9.64 µM (≈ 3.91 µg/mL). Also, the MIC is 9.64 µM (≈ 3.91 µg/mL) in the data set on Listeria monocytogenes; 1.2 µM (≈ 0.486 µg/mL) with Staphylococcus aureus [7]; 18.9 µM (≈ 7.66 µg/mL) in [8]; 1.2 µM (≈ 0.486 µg/mL) in the data set with Staphylococcus aureus [9]; 1.2 µM (≈ 0.486 µg/mL) in the data set on Enterococcus faecalis [10]; 19.3 µM (≈ 7.81 µg/mL) with Enterococcus faecalis [11]. Also, the MBC (as a rule, the smallest concentration meeting the test's criterion for killing) with Enterococcus faecalis [3] is 154 µM (≈ 62.4 µg/mL); in the data set with Staphylococcus aureus [4], 77.1 µM (≈ 31.3 µg/mL); with Bacillus subtilis, 37.7 µM (≈ 15.3 µg/mL); with Staphylococcus aureus [7], 4.82 µM (≈ 1.95 µg/mL); in data set [8], 37.7 µM (≈ 15.3 µg/mL); in the data set with Staphylococcus aureus [9] it was 38.6 µM (≈ 15.6 µg/mL). In the data set with Enterococcus faecalis [10], the MBC was found to be 9.64 µM (≈ 3.91 µg/mL). For the same molecule, the viability at 24 h, 50 µM in data set [5] is 94%. The IC50 (usually the concentration that inhibits the measured activity by half) at 24 h in data set [12] is greater than 100 µM.

`O=[N+]([O-])c1ccc(O)c(C(c2ccc(C(F)(F)F)cc2)N2CCc3ccccc32)c1` (centres undefined): the minimum inhibitory concentration (MIC) was 1.18 µM (≈ 0.489 µg/mL) in data set [2]; 1.18 µM (≈ 0.489 µg/mL) in the data set with Enterococcus faecalis [3]; 1.18 µM (≈ 0.489 µg/mL) with Staphylococcus aureus [4]; 2.36 µM (≈ 0.978 µg/mL) in the data set on Enterococcus faecium; less than 1.18 µM with Bacillus subtilis; 1.18 µM (≈ 0.489 µg/mL) with Staphylococcus aureus [6]. The MIC with Listeria monocytogenes is 1.18 µM (≈ 0.489 µg/mL); in the data set on Staphylococcus aureus [7] it was 1.18 µM (≈ 0.489 µg/mL); in data set [8], less than 1.18 µM; with Staphylococcus aureus [9], 1.18 µM (≈ 0.489 µg/mL); in the data set with Enterococcus faecalis [10] it was 1.18 µM (≈ 0.489 µg/mL); in the data set with Enterococcus faecalis [11] it was 2.36 µM (≈ 0.978 µg/mL). Moreover, the MBC was 151 µM (≈ 62.6 µg/mL) with Enterococcus faecalis [3]; 2.36 µM (≈ 0.978 µg/mL) with Staphylococcus aureus [4]; less than 1.18 µM in the data set with Bacillus subtilis; 1.18 µM (≈ 0.489 µg/mL) with Staphylococcus aureus [7]; less than 1.18 µM in [8]; 37.7 µM (≈ 15.6 µg/mL) with Staphylococcus aureus [9]. The minimum bactericidal concentration (MBC) with Enterococcus faecalis [10] is 9.43 µM (≈ 3.91 µg/mL). For the same molecule, the negative logarithm of the IC50 (pIC50) (usually −log10 of the IC50, conventionally taken in molar units) in the data set on MRC5 is 5.77. Moreover, the Activity entry in the data set with HaCaT [13] and in the data set with HaCaT [14] was “Non-Toxic” each time. Also, the mortality (in general, the share of the test organisms that died) at 24 h, 10 ug/ml in [15] stood at 8%. For the same molecule, in [12], the half-maximal inhibitory concentration (IC50) at 24 h is greater than 100 µM.

On to `Cc1ccc(C(c2cc([N+](=O)[O-])ccc2O)N2CCc3ccccc32)cc1` (centres undefined), for which the Activity in data set [1] is greater than 80%. The minimal bactericidal concentration (MBC) is 173 µM (≈ 62.4 µg/mL) with Enterococcus faecalis [3]; 43.4 µM (≈ 15.6 µg/mL) in the data set on Staphylococcus aureus [4]; 5.42 µM (≈ 1.95 µg/mL) in the data set on Staphylococcus aureus [7]; 347 µM (≈ 125 µg/mL) in the data set on Staphylococcus aureus [9]; 86.7 µM (≈ 31.2 µg/mL) in the data set with Enterococcus faecalis [10]. The MIC in the data set with Enterococcus faecalis [3] came out at 21.7 µM (≈ 7.82 µg/mL); in the data set on Staphylococcus aureus [4], 10.8 µM (≈ 3.89 µg/mL); in the data set on Staphylococcus aureus [7] it was 2.71 µM (≈ 0.977 µg/mL); in the data set on Staphylococcus aureus [9], 21.3 µM (≈ 7.68 µg/mL); in the data set on Enterococcus faecalis [10], 10.8 µM (≈ 3.89 µg/mL). For the same molecule, the viability at 24 h, 28 µM in [16] amounted to 20%. For the same molecule, the IC50 at 24 h in data set [12] is greater than 100 µM.
